Measurements reported in ChEMBL document CHEMBL1201862, “PubChem BioAssay data set” (2004).
The source made the active and inactive calls.

Legend:
[1] = molecular target: Potassium voltage-gated channel subfamily KQT member 2 (Rattus norvegicus, UniProt O88943); experiment: retigabine-insensitive KCNQ2 potentiators, concentration-response, dose response, cell-based, retigabine-insensitive compounds (AID 2654); assay type: functional
[2] = molecular target: Glyceraldehyde-3-phosphate dehydrogenase (Homo sapiens, UniProt P04406)
[3] = molecular target: Alkaline phosphatase, placental type (Homo sapiens, UniProt P05187); experiment: PLAP enzyme inhibitors, confirmation, biochemical, luminescence (AID 1512); assay type: functional
[4] = molecular target: T1, Alkaline phosphatase, tissue-nonspecific isozyme (Homo sapiens, UniProt P05186); experiment: human TNAP enzyme inhibitors, SAR follow-up, biochemical, luminescent, dose response (AID 1056)
T1 sequence (P05186 whole entry): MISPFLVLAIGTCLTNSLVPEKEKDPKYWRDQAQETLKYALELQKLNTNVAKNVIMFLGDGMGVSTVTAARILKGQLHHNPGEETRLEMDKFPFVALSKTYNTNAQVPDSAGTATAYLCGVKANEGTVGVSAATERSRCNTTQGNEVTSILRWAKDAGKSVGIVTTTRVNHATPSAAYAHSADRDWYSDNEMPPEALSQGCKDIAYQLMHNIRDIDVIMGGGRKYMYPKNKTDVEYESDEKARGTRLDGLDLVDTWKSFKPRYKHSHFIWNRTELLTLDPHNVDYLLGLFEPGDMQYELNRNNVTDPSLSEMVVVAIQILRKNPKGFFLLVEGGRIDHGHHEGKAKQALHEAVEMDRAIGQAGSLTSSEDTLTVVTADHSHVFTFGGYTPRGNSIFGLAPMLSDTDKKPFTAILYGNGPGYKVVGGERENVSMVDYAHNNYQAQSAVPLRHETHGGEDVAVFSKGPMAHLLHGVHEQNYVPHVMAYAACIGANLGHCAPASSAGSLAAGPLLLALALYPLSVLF

[5] = molecular target: 1-acylglycerol-3-phosphate O-acyltransferase ABHD5/Perilipin-5 (Homo sapiens, UniProt Q00G26+Q8WTS1); experiment: Luminescence-based biochemical high throughput dose response assay for inhibitors of the interaction of the lipase co-activator protein, abhydrolase domain containing 5 (ABHD5) with perilipin-5 (MLDP; PLIN5) (2K validation set). [Related pubchem assays (depositor defined):AID493035, AID493241]
Perilipin-1/ABHD5 = Perilipin-1/ABHD5 (Homo sapiens, UniProt O60240+Q8WTS1); experiment: Luminescence-based biochemical high throughput dose response assay for inhibitors of the interaction of the lipase co-activator protein, abhydrolase domain containing 5 (ABHD5) with perilipin-1 (PLIN1) (2K validation set). [Related pubchem assays (depositor defined):AID493027, AID493057]
[6] = molecular target: T2, Tyrosine-protein phosphatase non-receptor type 7 (Homo sapiens, UniProt P35236); experiment: Dose Response confirmation of compounds that inhibit HePTP. [Related pubchem assays (depositor defined):AID1059, AID1661, AID2085]; assay type: functional
T2 sequence (P35236 whole entry): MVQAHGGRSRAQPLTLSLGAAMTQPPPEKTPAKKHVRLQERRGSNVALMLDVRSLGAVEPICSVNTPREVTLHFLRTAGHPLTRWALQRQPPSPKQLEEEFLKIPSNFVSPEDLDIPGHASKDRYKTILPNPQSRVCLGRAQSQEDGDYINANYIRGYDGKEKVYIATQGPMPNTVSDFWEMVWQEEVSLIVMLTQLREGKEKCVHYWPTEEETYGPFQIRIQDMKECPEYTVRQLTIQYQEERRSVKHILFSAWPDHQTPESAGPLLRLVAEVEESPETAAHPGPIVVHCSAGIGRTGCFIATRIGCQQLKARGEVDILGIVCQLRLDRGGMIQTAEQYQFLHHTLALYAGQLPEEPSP

[7] = molecular target: T3, Dual specificity protein phosphatase 3 (Homo sapiens, UniProt P51452); experiment: Dose Response Confirmation of compounds that inhibit VHR1 in Fluorescent Assay. [Related pubchem assays (depositor defined):AID1661, AID1878]; assay type: functional
T3 sequence (P51452 whole entry): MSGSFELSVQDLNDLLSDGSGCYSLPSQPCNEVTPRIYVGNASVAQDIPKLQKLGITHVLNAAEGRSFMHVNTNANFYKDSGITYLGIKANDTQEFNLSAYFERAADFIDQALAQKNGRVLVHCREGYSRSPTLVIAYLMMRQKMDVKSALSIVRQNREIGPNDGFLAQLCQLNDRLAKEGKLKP

[8] = molecular target: T4, Low molecular weight phosphotyrosine protein phosphatase (Homo sapiens, UniProt P24666); assay type: functional; conditions: read-out: IC50_Mean;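 note: Dose-response confirmation assay measuring inhibition of LMPTP enzyme activity by fluorescence intensity read-out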
T4 sequence (P24666 whole entry): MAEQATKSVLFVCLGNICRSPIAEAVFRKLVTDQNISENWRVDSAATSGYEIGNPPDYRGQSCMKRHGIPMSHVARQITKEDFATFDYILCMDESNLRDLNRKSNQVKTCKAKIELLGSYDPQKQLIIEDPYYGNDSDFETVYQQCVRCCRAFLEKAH

Caspase-3 = molecular target: T5, Caspase-3 (Homo sapiens, UniProt P42574); experiment: procaspase-3 activators, dose response, biochemical, absorbance (AID 489014)
T5 sequence (P42574 whole entry): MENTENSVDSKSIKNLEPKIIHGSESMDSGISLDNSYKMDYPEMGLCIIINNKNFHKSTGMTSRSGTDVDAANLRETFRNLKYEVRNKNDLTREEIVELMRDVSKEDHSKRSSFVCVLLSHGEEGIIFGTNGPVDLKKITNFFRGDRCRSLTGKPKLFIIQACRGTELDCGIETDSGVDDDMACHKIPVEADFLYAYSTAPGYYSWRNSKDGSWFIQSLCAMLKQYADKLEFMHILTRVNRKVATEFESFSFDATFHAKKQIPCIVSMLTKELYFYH

Caspase-7 = Caspase-7 (Homo sapiens, UniProt P55210); experiment: procaspase-7 activators, dose response, counter-screen for procaspase-3 activator project, biochemical, absorbance (AID 489013)
[9] = molecular target: T6, Voltage-gated N-type calcium channel alpha-1B subunit/Amyloid beta A4 precursor protein-binding family A member 1 (Homo sapiens, UniProt Q00975+Q02410); assay type: protein assay
T6 sequence (Q00975 whole entry): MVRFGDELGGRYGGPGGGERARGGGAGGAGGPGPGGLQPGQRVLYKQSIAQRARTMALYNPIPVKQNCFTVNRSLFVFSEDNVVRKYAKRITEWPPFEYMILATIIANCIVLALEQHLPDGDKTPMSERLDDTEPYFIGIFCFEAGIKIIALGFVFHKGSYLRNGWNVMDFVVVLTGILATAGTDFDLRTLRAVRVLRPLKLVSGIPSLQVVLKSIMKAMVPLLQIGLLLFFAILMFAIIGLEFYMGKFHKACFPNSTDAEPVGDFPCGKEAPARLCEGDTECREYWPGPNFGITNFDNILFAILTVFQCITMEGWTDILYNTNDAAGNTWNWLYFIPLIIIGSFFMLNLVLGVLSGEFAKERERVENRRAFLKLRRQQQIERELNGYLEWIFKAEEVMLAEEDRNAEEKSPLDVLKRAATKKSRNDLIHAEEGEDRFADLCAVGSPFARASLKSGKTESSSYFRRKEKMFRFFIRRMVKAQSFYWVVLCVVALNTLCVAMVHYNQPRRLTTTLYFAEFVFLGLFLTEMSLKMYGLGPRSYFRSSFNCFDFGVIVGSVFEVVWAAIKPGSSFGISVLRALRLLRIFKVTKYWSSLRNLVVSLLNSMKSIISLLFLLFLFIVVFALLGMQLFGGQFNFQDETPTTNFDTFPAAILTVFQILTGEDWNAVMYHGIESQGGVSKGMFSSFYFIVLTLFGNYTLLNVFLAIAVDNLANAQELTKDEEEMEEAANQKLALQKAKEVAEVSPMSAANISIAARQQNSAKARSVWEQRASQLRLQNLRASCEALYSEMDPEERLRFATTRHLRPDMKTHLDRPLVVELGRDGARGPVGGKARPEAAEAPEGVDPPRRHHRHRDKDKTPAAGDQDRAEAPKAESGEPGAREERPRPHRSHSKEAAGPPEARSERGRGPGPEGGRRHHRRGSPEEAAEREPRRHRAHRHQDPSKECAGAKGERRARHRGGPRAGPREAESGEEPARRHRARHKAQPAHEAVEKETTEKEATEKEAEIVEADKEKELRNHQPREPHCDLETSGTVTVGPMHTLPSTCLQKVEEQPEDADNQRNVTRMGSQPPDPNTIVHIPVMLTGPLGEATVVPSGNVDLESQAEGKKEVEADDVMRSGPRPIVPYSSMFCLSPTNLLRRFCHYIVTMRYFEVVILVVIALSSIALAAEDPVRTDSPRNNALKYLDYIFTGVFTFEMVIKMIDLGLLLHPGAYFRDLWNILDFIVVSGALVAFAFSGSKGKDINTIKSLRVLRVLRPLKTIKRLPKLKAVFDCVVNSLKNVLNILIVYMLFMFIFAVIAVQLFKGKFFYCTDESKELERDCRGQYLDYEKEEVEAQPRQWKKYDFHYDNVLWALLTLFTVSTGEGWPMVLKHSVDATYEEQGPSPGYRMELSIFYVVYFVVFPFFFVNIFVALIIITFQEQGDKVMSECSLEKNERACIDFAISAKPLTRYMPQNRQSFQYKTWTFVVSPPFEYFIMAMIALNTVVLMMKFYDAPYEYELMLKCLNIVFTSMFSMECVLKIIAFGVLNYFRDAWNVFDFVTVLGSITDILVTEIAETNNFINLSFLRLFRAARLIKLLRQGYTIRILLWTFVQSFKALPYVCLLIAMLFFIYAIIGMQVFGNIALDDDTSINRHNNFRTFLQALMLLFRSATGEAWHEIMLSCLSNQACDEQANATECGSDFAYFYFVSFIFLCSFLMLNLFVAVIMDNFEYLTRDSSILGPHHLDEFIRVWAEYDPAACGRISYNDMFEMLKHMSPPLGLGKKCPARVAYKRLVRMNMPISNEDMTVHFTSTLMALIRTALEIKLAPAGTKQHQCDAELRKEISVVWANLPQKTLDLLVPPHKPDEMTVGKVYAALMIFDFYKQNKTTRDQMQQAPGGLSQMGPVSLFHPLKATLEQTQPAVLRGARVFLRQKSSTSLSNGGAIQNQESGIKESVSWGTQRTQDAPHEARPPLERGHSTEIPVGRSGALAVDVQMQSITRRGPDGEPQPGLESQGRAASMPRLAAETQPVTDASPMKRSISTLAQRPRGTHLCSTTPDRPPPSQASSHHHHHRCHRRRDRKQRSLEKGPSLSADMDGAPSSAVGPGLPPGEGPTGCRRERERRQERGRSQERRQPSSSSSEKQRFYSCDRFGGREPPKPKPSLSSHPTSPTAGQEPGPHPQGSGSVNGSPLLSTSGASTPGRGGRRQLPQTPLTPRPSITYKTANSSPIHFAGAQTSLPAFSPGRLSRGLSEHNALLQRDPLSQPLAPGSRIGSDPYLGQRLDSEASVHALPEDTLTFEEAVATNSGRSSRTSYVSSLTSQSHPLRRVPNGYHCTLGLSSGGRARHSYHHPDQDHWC
T6 sequence (Q02410 whole entry): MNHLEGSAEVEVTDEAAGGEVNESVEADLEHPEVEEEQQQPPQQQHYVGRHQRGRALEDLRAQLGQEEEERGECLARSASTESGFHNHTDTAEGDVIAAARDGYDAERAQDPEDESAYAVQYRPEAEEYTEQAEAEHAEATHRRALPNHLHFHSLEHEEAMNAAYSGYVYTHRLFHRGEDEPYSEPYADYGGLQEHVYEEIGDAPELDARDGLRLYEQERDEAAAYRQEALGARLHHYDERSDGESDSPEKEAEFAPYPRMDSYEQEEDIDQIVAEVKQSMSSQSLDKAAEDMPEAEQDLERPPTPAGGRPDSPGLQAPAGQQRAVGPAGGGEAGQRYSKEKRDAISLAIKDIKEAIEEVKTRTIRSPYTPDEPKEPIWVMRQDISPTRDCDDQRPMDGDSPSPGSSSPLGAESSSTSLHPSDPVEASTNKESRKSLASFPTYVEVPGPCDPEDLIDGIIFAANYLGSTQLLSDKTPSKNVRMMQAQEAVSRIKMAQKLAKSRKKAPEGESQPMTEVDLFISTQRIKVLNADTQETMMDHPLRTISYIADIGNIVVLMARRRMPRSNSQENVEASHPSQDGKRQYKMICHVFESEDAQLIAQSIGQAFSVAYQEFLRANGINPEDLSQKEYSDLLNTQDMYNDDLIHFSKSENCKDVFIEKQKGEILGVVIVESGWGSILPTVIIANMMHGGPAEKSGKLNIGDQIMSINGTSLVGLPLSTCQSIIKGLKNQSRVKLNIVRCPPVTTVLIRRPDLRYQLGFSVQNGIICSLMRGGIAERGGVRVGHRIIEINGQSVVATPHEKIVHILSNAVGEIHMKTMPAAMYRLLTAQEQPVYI

Large T antigen = Large T antigen (Simian virus 40, UniProt P03070); assay type: functional, Betapolyomavirus macacae;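 note: Confirmatory-stage PubChem screen for compounds that inhibit SV40 T antigen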
[10] = molecular target: T6, Voltage-gated N-type calcium channel alpha-1B subunit/Amyloid beta A4 precursor protein-binding family A member 1; assay type: protein assay; remark: listed apart in the source
[11] = molecular target: T7, Mannose-6-phosphate isomerase (Homo sapiens, UniProt P34949); experiment: human PMI inhibitors, high substrate, primary screen, biochemical, fluorescence intensity, high mannose 6-phosphate (AID 1220)
T7 sequence (P34949 whole entry): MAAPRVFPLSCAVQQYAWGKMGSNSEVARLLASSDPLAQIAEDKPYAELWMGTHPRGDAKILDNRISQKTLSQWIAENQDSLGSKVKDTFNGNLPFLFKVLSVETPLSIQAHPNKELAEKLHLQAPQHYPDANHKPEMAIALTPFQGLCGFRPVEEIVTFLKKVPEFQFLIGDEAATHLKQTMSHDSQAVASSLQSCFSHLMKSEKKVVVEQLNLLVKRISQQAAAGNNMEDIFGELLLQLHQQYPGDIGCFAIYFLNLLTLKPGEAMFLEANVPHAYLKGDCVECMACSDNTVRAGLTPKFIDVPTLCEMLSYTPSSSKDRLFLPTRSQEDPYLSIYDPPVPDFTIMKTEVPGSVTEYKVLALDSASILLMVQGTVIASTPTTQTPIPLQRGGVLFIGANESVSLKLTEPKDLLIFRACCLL

[12] = molecular target: Glucose-6-phosphate 1-dehydrogenase (Homo sapiens, UniProt P11413); experiment: human G6PD enzyme inhibitors, dose response, selectivity assay for P. falciparum G6PD inhibitor project, biochemical, fluorescence (AID 504792); assay type: functional
[13] = molecular target: Phosphoethanolamine/phosphocholine phosphatase (Homo sapiens, UniProt Q8TCT1); experiment: SAR assay for compounds that inhibit PHOSPHO1. [Related pubchem assays (depositor defined):AID1545, AID1565, AID1574]
[14] = molecular target: Eukaryotic translation initiation factor 4E (Mus musculus, UniProt P63073); experiment: eIF4E–eIF4G protein interaction inhibitors, dose response, biochemical, TR-FRET (AID 855); assay type: functional;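 note: potency for disrupting eIF4E binding to eIF4GI seen as loss of FRET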
Sequence of Eukaryotic translation initiation factor 4E (P63073 whole entry): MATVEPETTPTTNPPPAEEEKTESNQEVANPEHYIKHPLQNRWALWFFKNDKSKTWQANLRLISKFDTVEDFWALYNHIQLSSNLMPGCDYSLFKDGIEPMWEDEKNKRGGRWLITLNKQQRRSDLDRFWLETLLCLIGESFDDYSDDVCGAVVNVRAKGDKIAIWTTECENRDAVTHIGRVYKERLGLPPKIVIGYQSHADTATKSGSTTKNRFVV

[15] = molecular target: T6, Voltage-gated N-type calcium channel alpha-1B subunit/Amyloid beta A4 precursor protein-binding family A member 1; experiment: disruptors of Mint-PDZ/N-type channel peptide interaction – biochemical, HTRF, set 2, SAR follow-up (AID 434980); assay type: functional
[16] = molecular target: T6, Voltage-gated N-type calcium channel alpha-1B subunit/Amyloid beta A4 precursor protein-binding family A member 1; experiment: disruptors of Mint-PDZ/N-type channel peptide interaction – biochemical, HTRF, SAR follow-up (AID 2489); assay type: functional
[17] = cytotoxicity in NIH/3T3 mouse fibroblasts, dose response, cytotoxicity control, cell-based, mouse embryonic fibroblasts, dry powder, set 2 (AID 493247); assay type: functional; conditions: Fibroblast
Trypanosoma cruzi = experiment: growth inhibition of intracellular Trypanosoma cruzi, dose response, cell-based, plate reader, dry powder, set 3 (AID 493197); assay type: functional
Mu-type opioid receptor = Mu-type opioid receptor (Homo sapiens, UniProt P35372); experiment: SAR Analysis of Antagonists of the MOR Receptor using an Image-Based Assay - Set 3. [Related pubchem assays (depositor defined):AID1777, AID1785, AID1786, AID1966, AID2133, AID2136, AID2284, AID2285, AID2420]; assay type: functional
[18] = molecular target: T8, Kappa-type opioid receptor (Homo sapiens, UniProt P41145); experiment: SAR analysis of small molecule antagonists of the kappa opioid receptor via a luminescent beta-arrestin assay - Set 6. [Related pubchem assays (depositor defined):AID1777, AID1778, AID1785, AID1786, AID1966, AID2133, AID2136, AID2285]; assay type: functional
T8 sequence (P41145 whole entry): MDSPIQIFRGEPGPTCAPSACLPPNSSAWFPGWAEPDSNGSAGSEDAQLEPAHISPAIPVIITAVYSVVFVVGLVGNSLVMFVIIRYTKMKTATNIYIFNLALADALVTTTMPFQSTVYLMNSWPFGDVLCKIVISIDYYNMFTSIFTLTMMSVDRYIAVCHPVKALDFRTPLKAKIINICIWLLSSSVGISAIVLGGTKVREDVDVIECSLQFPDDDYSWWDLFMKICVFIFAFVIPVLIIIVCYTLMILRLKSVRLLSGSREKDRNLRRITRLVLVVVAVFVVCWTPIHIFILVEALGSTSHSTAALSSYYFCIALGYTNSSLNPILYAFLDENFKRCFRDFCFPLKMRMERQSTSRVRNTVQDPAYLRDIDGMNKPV

[19] = molecular target: T8, Kappa-type opioid receptor; experiment: SAR analysis of small molecule antagonists of the kappa opioid receptor via a luminescent beta-arrestin assay - Set 4. [Related pubchem assays (depositor defined):AID1777, AID1778, AID1785, AID1786, AID1966, AID2133, AID2136, AID2285]; assay type: functional
[20] = molecular target: Delta-type opioid receptor (Homo sapiens, UniProt P41143); experiment: SAR Analysis of Antagonists of the DOR Receptor using an Image-Based Assay - Set 3. [Related pubchem assays (depositor defined):AID1777, AID1785]; assay type: functional;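 note: U2OS cells expressing DOR1 and beta-arrestin GFP stimulated with 100 nM SNC80; imaging of GFP-tagged beta-arrestin moving into spots after receptor activation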
[21] = molecular target: T8, Kappa-type opioid receptor; experiment: SAR analysis of Antagonists of the Kappa Opioid Receptor (KOR) using an Image-Based Assay - Set 4. [Related pubchem assays (depositor defined):AID1777, AID1785]; assay type: functional
Hexokinase = Hexokinase (Trypanosoma brucei, UniProt Q38C41); experiment: Confirmation assay for inhibitors of Trypanosoma brucei hexokinase 1-Analogue-first series. [Related pubchem assays (depositor defined):AID1430, AID1632, AID2516, AID2560, AID2579, AID2600, AID449725, AID492951]; assay type: functional
[22] = molecular target: T2, Tyrosine-protein phosphatase non-receptor type 7; experiment: SAR analysis of chemical inhibitors of HePTP using a Fluorescent assay - Set 2. [Related pubchem assays (depositor defined):AID1059, AID1077, AID1661, AID2085, AID521]; assay type: functional
[23] = molecular target: T3, Dual specificity protein phosphatase 3; experiment: SAR VHR1 Fluorescent Assay for In Vitro dose response studies Set 2. [Related pubchem assays (depositor defined):AID1654, AID1661, AID1878]; assay type: functional
[24] = molecular target: Sphingosine 1-phosphate receptor 4 (Homo sapiens, UniProt O95977); experiment: S1P4 receptor agonists, human, late-stage follow-up, cell-based, fluorescence, synthesized compounds (AID 463107); assay type: functional
SUMO-activating enzyme [25] = molecular target: T9, SUMO-activating enzyme (Homo sapiens, UniProt Q9UBT2); experiment: SUMOylation inhibitor hit validation, confirmation, SUMOylation inhibitor project, biochemical, AlphaScreen (AID 2018); assay type: functional
T9 sequence (Q9UBE0 whole entry): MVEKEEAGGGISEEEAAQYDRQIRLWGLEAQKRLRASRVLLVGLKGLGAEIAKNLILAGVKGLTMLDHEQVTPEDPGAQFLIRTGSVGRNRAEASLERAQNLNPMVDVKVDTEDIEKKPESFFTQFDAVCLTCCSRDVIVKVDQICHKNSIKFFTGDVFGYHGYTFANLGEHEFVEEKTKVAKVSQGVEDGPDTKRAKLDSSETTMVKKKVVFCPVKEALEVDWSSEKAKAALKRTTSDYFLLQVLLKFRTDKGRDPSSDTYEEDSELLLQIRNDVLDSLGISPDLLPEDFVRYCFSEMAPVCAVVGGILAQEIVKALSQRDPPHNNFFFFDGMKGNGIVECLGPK
T9 sequence (Q9UBT2 whole entry): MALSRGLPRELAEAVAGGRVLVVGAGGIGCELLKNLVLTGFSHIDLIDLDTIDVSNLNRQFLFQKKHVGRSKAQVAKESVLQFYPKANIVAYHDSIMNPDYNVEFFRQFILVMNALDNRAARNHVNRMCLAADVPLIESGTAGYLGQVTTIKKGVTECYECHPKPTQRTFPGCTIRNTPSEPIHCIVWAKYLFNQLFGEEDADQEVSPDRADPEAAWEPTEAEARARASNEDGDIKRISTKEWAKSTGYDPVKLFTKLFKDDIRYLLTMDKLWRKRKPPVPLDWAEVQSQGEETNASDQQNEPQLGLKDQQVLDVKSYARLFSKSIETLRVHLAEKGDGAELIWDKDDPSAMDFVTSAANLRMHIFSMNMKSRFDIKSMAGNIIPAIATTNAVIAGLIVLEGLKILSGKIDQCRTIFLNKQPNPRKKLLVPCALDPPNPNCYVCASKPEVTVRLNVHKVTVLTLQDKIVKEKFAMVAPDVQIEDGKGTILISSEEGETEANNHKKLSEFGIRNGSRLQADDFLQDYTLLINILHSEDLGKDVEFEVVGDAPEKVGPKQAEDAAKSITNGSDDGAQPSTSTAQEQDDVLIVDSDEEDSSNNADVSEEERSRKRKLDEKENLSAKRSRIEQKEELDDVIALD

SUMO-activating enzyme [26] = molecular target: T9, SUMO-activating enzyme; experiment: inhibitors of in vitro SUMOylation cascade, primary screen, biochemical, HTRF, uHTS (AID 2006); assay type: protein-complex assay
[27] = molecular target: Protein-tyrosine kinase 2-beta (Homo sapiens, UniProt Q14289);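 note: potency of inhibitors of PYK2 kinase phosphorylation of poly-GT substrate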

COc1ccc(NC(=O)Nc2cccnc2)cc1
EC50 [1]: 203 µM (active)

CCN(CC)C(=O)CSc1nnc(-c2ccccc2OC)[nH]1
IC50 [2]: > 100 µM (not active) | IC50 [3]: > 100 µM (inactive) | IC50 [4]: 17.6 µM (active)

COc1cccc(/C=C/C(=O)c2c(O)cc(C)oc2=O)c1O
IC50 [5]: 9.96 µM (active) | IC50 (Perilipin-1/ABHD5): 6.79 µM (active)

O=C(Nc1ccncc1)c1cc(-c2ccccn2)nc2ccc(Br)cc12
IC50 [6]: 1.52 µM (active) | IC50 [7]: 9.44 µM (active) | IC50 [8]: 26.3 µM (inactive)

CC1(C)Cc2c(c(N3CCCC3)nc3sc(C(=O)Nc4ccccc4)c(N)c23)CO1
EC50 (Caspase-3): > 85.3 µM (inactive) | EC50 (Caspase-7): > 85.3 µM (inactive)

CNc1nc(-c2ccccc2)[n+](-c2ccc(C)cc2)s1
IC50 [9]: 1.4 µM (active) | IC50 (Large T antigen): 39 µM (active) | IC50 [10]: 2.48 µM (active) | IC50 [11]: 6.89 µM (active) | IC50 [12]: 10.5 µM (active) | IC50 [13]: 4.47 µM (inactive) | IC50 [14]: 1.49 µM (active) | IC50 [15]: 0.278 µM (active) | IC50 [16]: < 0.11 µM (active)

O=C(CCc1ccccc1)N/N=C/c1ccc([N+](=O)[O-])o1
AC50 [17]: 26.3 µM (active) | AC50 (Trypanosoma cruzi): 0.335 µM (active)

CCCCc1ccc(S(=O)(=O)NCc2ccc(C(=O)NCCN(Cc3ccccc3)C(C)C)cc2)cc1
IC50 (Mu-type opioid receptor): > 32 µM (inactive) | IC50 [18]: 4.73 µM (active) | IC50 [19]: 3.01 µM (active) | IC50 [20]: > 32 µM (inactive) | IC50 [21]: 0.168 µM (active)

O=c1c(Br)csn1-c1ccc(Br)cc1
IC50 (Hexokinase): 11.1 µM (active)

COc1ccc(OC)c(C(=S)NCc2cccc(F)c2)c1
IC50 [22]: 64 µM (active) | IC50 [23]: 65.2 µM (active)

Cc1ccc(OCCOc2ccccc2C(F)(F)F)c([N+](=O)[O-])n1
EC50 [24]: > 50 µM (inactive)

O=C(Cn1c2ccccc2c(=O)c2ccccc21)N/N=C/c1cc([N+](=O)[O-])ccc1N1CCCCCC1
IC50 (SUMO-activating enzyme [25]): 6.12 µM (active) | IC50 (SUMO-activating enzyme [26]): 24.9 µM (active) | IC50 [27]: 1.94 µM (active)
